# Results taken from patent US8828931B2, “Bifunctional molecules for inhibiting HIV entry” (priority 2008, dated 2014).
# Read-outs that look alike come from different tables or passages of the source. No end group written: not given here.
# Key:
# [1] = test system: HIV-1 IIIB (B, X4)
# Protocol: The inhibitory activity of the bifunctional molecule on HIV-1 IIIB infection was determined by ELISA for p24 production (Jiang S et al. J Exp Med 174:1557-1563, 1991). Briefly, MT-2 cells were infected with HIV-1IIIB at 100 TCID50 (50% tissue culture infective dose) in RPMI 1640 medium containing 10% FBS in the presence or absence of an antigen specific antiserum or IgG antibody in serial 2-fold dilutions at 37° C. overnight. The culture supernatants were then removed and fresh media were added. On day 4 post-infection, the culture supernatants were collected and mixed with equal volumes of 5% Triton X-100 for the detection in the p24 protein ELISA.
# [2] = test system: HIV-1 IIIB-mediated cell fusion (H9/HIV-1 IIIB effector cells, MT-2 target cells); settings: H9/HIV-1 IIIB and MT-2 cells, dye transfer
# Protocol: HIV-1-mediated cell-cell fusion was determined by a dye transfer assay (Lu H et al. J Virol Methods 107:155-161, 2003) using Calcein AM-labeled HIV-1IIIB chronically infected H9 (H9/HIV-1 IIIB) cells as effector cells and MT-2 cells as target cells.
# [3] = test system: NL4-3V38A/N42G
# Protocol: Briefly, 2×10^5 or 5×10^5 CEMx174 5.25M7 cells were infected with HIV-1 or HIV-2, respectively, at 100 TCID50 (50% tissue culture infective dose) in RPMI 1640 medium containing 10% FBS in the absence or presence of an antisera or purified IgG antibodies at graded concentrations overnight. On the fourth day post-infection, cells were harvested and lysed using a lysis buffer (Promega, Madison, Wis.). The luciferase activity was measured by Ultra 384 luminometer reader (Tecan) and the percent inhibition was calculated.
# [4] = test system: 92US657 (B, R5); format: cell-based, HIV-1
# Protocol: (§1) Briefly, the peripheral blood mononuclear cells (PBMCs) were isolated from the blood of healthy donors using a standard density gradient (Histopaque-1077, Sigma) centrifugation. After incubation at 37° C. for 2 hr, the nonadherent cells were collected and resuspended at 5×10^5/ml in RPMI 1640 medium containing 10% FBS, 5 μg of phytohemagglutinin (PHA)/ml, and 100 U of IL-2/ml, followed by incubation at 37° C. for 3 days. The PHA-stimulated cells were infected with the corresponding primary HIV-1 isolates at a multiplicity of infection (MOI) of 0.01 in the absence or presence of antisera at a serial 2-fold dilution. The supernatants were collected 7 days post-infection and tested for p24 antigen by ELISA as described above. The IC50 was calculated using the CalcuSyn
# (§2) software as described above.
# [5] = test system: 93IN101 (B, R5); format: cell-based, HIV-1
# Protocol: as §1, §2
# [6] = In vitro stability in human serum, residual activity by cell-cell fusion inhibition assay; settings: 16 μM, 37° C., 100% human serum
# Source text: (§3) Samples were collected at different intervals and tested for the residual concentrations of the active component using cell-cell fusion inhibition assay as described above.
# [7] = In vitro stability in PBMC culture, residual activity by cell-cell fusion inhibition assay; settings: 16 μM, 37° C.
# Source text: as §3
# [8] = molecular target: proteinase K (Parengyodontium album, UniProt P06873); assay: Resistance to proteolysis by proteinase K; settings: 4 μM in PBS, immobilized proteinase K 0.1 unit/ml, 37° C.
# Sequence of proteinase K (P06873 106-384): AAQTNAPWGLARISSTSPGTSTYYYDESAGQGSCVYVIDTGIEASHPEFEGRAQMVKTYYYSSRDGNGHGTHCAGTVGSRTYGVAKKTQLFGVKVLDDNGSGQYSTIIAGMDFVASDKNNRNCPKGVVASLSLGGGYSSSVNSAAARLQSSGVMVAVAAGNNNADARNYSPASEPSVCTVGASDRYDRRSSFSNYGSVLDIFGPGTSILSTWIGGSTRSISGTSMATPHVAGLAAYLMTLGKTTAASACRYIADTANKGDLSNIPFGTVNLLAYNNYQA
Substance,"IC50 ([1]; read-out: IC50, HIV-1 replication, IIIB (B, X4), MT-2 cells, p24) [nM]","IC90 ([1]; read-out: IC90, HIV-1 replication, IIIB (B, X4), MT-2 cells, p24) [nM]","IC50 ([2]; read-out: IC50, concentration for inhibiting HIV-1 IIIB-mediated cell fusion) [nM]","IC90 ([2]; read-out: IC90, concentration for inhibiting HIV-1 IIIB-mediated cell fusion) [nM]","IC50 ([1]; IIIB (B, X4)) [nM]","IC90 ([1]; IIIB (B, X4)) [nM]","inhibition of infection by T20-resistant strain ([3]; concentration up to 2,000 nM)","IC50 ([3]; read-out: IC50, HIV-1 replication, NL4-3V38A/N42G, T20-resistant HIV-1 strain, luciferase) [nM]","IC90 ([3]; read-out: IC90, HIV-1 replication, NL4-3V38A/N42G, T20-resistant HIV-1 strain, luciferase) [nM]",IC50 [4] [nM],IC90 [4] [nM],IC50 [5] [nM],IC90 [5] [nM],residual activity in human serum after 6 days [6] [%],time after which activity began to be lost in PBMC ([7]; PBMC in RPMI1640 with 10% FBS) [days],"activity lost in PBMC after 6 days incubation ([7]; PBMC, 6 days) [%]",treatment time with proteinase K after which activity was totally lost [8] [min]
TTWMAWDREINNYTSLIHSLIRRSQNQQEKNEQELLELDKWASLLWNWF [T1144-C10],> 250,> 250,,,,,,,,,,,,,,,
enfuvirtide,,,15.9,25.4,68.1,211,no inhibition,> 2000,> 2000,1.7,13,2.7,6.5,5,> 2,> 90,5
